Measured values as given in PMC8066102, “Metabolic Profiles of New Unsymmetrical Bisacridine Antitumor Agents in Electrochemical and Enzymatic Noncellular Systems and in Tumor Cells” (Pharmaceuticals, 2021).

Key:
[1] = test system: HT-29 cells; test: Drug metabolism and medium/cell extract distribution in HT-29 colon tumor cells; format: cell-based, human; conditions: HT-29, 5 μM; for drug level in cell extract: 3-48 h; for metabolite formation in cells: post-culture media and cell extracts
Protocol: To analyze the transformation products of UAs in colon tumor cell lines, HCT-116 or HT-29 cells were plated in 60 mm Petri dishes; after reaching 80% of confluence, cells were treated with 5/25/50 μM of C-2028, C-2045 or C-2053 (prepared as 10 or 2 mM stock solutions in water) for specified time. Half of medium was added to acetonitrile (1:1, v/v), centrifuged (12 min, 13,400 rpm, 4 °C) and the supernatant was analyzed by HPLC (post-culture medium). Cells remaining on the Petri dishes were collected by gentle scraping, sedimented, washed with ice-cold PBS, suspended in ice-cold chloroform and lysed by sonication for 15 min. After 1 h on ice, insoluble material was removed by centrifugation at 13,000 rpm for 20 min at 4 °C. The sediment was discarded and supernatant (chloroform) were evaporated under pressure. Then, sample was suspended in ice-cold 60% methanol and directly analyzed by HPLC (cell extract).

[2] = molecular target: T1, UGT2B15 (Homo sapiens, UniProt P54855); test: Glucuronidation with recombinant UGT2B15; format: in vitro ADME; parameters: key: −: the lack of UGT activity; +: the significant UGT activity; conditions: 0.05 mM compound, 1 mg/mL UGT, 5 mM UDPGA
T1 construct: purchased Corning, NY, USA (through DIAG-MED, Poland); host or cells: baculovirus-insect cells (Supersomes)
T1 sequence (P54855 24-530): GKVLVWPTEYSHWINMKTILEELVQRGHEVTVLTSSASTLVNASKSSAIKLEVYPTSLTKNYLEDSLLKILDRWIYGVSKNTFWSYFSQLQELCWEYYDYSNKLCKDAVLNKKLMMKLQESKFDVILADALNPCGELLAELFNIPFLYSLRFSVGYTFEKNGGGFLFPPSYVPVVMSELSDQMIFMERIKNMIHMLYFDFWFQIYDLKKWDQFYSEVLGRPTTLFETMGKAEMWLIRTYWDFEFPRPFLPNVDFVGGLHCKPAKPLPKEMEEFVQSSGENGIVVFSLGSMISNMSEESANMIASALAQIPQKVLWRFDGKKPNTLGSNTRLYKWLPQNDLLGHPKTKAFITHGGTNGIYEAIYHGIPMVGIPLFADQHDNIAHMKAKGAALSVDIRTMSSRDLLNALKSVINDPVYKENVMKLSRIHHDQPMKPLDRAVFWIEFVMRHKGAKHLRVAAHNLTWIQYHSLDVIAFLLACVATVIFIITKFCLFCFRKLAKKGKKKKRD
Protocol: Recombinant UGT isoform protein (1 mg/mL) was assayed for activity toward tested UAs as follows. The proteins were incubated in a buffer containing 0.1 M HEPES (pH 7.4), 8 mM MgCl2 and alamethicin (25 μg/mL) with either 0.05 mM substrate in total volume 70 µL (alamethicin was added to permeabilize the membrane). Substrates were also in buffer HEPES, pH 7.4. Reactions were started by the addition of UDPGA (5 mM) and were incubated for specified time at 37 °C. The reactions were stopped by the addition of 8.75 µL of 1 M HCl, followed by centrifugation at 13400 rpm for 10 min to pellet the denatured protein. The supernatant fractions were used for HPLC analysis. Control reactions omitting substrate were run with each assay. All incubations were performed in two repetitions.

[3] = molecular target: T2, P4503A4 (Homo sapiens, UniProt P08684); test: Modulation of P4503A4 activity (testosterone β-hydroxylation); format: in vitro ADME; conditions: for mechanism of P4503A4 inhibition: testosterone 0.02-0.2 mM, inhibitor 0-0.01 mM, nonlinear regression; for decrease in activity of P4503A4: testosterone β-hydroxylation, all concentrations (0.01, 0.02 and 0.05 mM), 30 min
T2 construct: purchased Cypex, Dundee, Scotland, UK (through Tebu-Bio); host or cells: Escherichia coli (Bactosomes)
T2 sequence (P08684 whole entry): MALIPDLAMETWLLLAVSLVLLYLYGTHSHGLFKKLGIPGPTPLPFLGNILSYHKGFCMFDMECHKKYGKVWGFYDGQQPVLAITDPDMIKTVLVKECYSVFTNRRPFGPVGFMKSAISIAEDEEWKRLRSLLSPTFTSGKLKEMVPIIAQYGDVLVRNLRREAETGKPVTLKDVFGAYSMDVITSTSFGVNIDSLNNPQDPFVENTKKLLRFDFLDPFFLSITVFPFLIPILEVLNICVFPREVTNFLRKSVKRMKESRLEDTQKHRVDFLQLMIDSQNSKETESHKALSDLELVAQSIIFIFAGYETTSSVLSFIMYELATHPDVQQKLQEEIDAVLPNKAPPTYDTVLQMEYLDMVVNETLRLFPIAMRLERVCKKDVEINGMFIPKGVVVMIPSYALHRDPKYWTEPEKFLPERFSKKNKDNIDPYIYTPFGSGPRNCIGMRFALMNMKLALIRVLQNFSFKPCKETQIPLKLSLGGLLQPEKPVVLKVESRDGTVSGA
Protocol: Isoenzyme activity was studied by the rate measurement of β-hydroxylation of testosterone (specific substrate for P4503A4) and of glucuronidation of specific substrates, namely, SN-38 (UGT1A1), EPI (UGT2B7),) and TFK (UGT2B15). All substrate and drug solutions were prepared as 10 mM stock solutions in DMSO and were diluted in […] (pH 7.4). The mixture containing isoenzymes P4503A4/UGT (0.5 mg/mL), probe substrate (0.1 mM), cofactor 2 mM NADPH/5 mM UDPGA and the increasing concentrations of tested UA (0, 0.01, 0.02 and 0.05 mM) was incubated in the reaction buffer containing (i) for P4503A4 0.1 M HEPES, 88 mM MgCl2 and (ii) for UGT 0.1 M HEPES, 88 mM MgCl2, 25 μg/mL alamethicin at 37 °C for 30 min and were terminated by adding 8.75 µL of 0.1 M HCl. The samples were placed in ice for 10 min and centrifuged (10 min, 13,400 rpm). Supernatant fractions were analyzed by HPLC. For more accurate investigation of P4503A4 inhibition by C-2045 and C-2053 the β-hydroxylation rate was measured at various concentrations of testosterone: 0.02, 0.05, 0.1 and 0.2 mM. The inhibitor (UA) concentrations were 0, 0.001, 0.005 and 0.01 mM, whereas the incubation time 30 min and concentration of P4503A4 (0.5 mg/mL).

[4] = test system: rat liver microsomes, P450-RLMs Dex-induced; test: Metabolism with rat liver microsomes (Dex-induced P450-RLMs); format: in vitro ADME; conditions: 0.05 mM compound, 2 mM NADPH; for conversion rate: 2 mg/mL Dex-induced P450-RLMs, 30 min; for substrate consumption: Dex-induced P450-RLMs, 10 min
Protocol: The initial studies on drug metabolism of new UAs were performed with rat liver microsomes under the optimal conditions. HEPES buffer (0.1 M) at pH 7.4 with 2 mM NADPH and 0.05 mM UAs (C-2028 and C-2045) were selected.
UT-RLMs (2 mg/mL) and P450-RLMs induced with Dex, 3MC, or PB and recombinant P4502C19 and P4503A4 (1 mg/mL) were assayed for activity toward tested UAs as follows. The proteins were incubated in a buffer containing 0.1 M HEPES (pH 7.4), 2 mM MgCl2 with 0.05 mM substrate in total volume 70 µL. Substrates were added also in buffer HEPES, pH 7.4. Reactions were started by the addition of NADPH (2 mM) and were incubated for specified time at 37 °C. The reactions were stopped by the addition of 8.75 µL of 1 M HCl, followed by centrifugation at 13,400 rpm for 10 min to pellet the denatured protein. The supernatant fractions were used for high-performance liquid chromatography (HPLC) analysis. Control reactions omitting substrate were run with each assay. All incubations were performed in two repetitions.

SMILES | drug level in cell extract [1] | metabolite formation in cells [1] | Glucuronidation potency UGT 2B15 [2] | mechanism of P4503A4 inhibition [3] | decrease in activity of P4503A4 [3] | conversion rate [4] | substrate consumption [4]
Cc1ccc([N+](=O)[O-])c2c(NCCCN(C)CCCNc3ccc4ncn5c6ccccc6c(=O)c3c45)c3ccccc3nc12 [C-2053] | extremely high level | did not indicate the presence of metabolites | − | competitive | above 50% |  | 
Cc1ccc([N+](=O)[O-])c2c(NCCCN(C)CCCNc3ccc4ncn5c6ccc(O)cc6c(=O)c3c45)c3ccccc3nc12 [C-2045] |  |  | − | non-competitive | over 90% | 80% | not metabolized
CN(CCCNc1c2ccccc2nc2cccc([N+](=O)[O-])c12)CCCNc1ccc2ncn3c4ccccc4c(=O)c1c23 [C-2028] | high up to 24 hours and diminished significantly after 48 hours | did not indicate the presence of metabolites | − |  |  | 100% | completely consumed
